According to patent US20210255167A1, “COMPOSITIONS AND METHODS FOR ASSESSING TOXICITY USING DYNAMIC BH3 PROFILING” (Dana-Farber Cancer Institute, Inc., priority 2015, published 2021):

Tested on: adult mouse hepatocytes
Excerpt: In some aspects, methods provided herein relate to determining the toxicity of an agent in a sample of cells. In some embodiments, the toxicity of the agent can be determined by determining a value for delta percent priming. As used herein, “delta percent priming” refers to the extent to which an agent shifts a cell closer to the threshold of apoptosis. In some embodiments, normalized values of MOMP (e.g., percent BH3 domain peptide-induced MOMP, or “% MOMP”) are used to determine a value for delta percent priming. In such embodiments, the value for delta percent priming can be calculated using the equation:
Delta Percent Priming=(% MOMPTEST)−(% MOMPCONTROL),
where “% MOMPTEST” represents the value for percent BH3 domain peptide-induced MOMP determined in a test aliquot (cells contacted with the agent); and “% MOMPCONTROL” represents the value for percent BH3 domain peptide-induced MOMP determined in a control aliquot (cells not contacted with the agent).
Next, various drug compounds were tested to assess the extent of drug-induced increased cell death sensitivity in adult mouse hepatocytes. Freshly isolated adult mouse hepatocytes were treated with different drugs for 20 hours, and the loss of cytochrome c induced by a single concentration of the synthetic Bim BH3 peptide was subsequently assessed by immunofluorescence (FIGS. 5A-D). Increase in cell death sensitivity is indicated by loss of cytochrome c, which is quantified as an increase in apoptotic sensitivity (delta priming, FIG. 5E).

Question: For `CC1(C)CCC(c2ccc(Cl)cc2)=C(CN2CCN(c3ccc(C(=O)NS(=O)(=O)c4ccc(N[C@H](CCN5CCOCC5)CSc5ccccc5)c(S(=O)(=O)C(F)(F)F)c4)cc3)CC2)C1` [Navitoclax], which “apoptotic sensitivity (delta priming)” value is on record?
Answer: increase apoptotic sensitivity

Question: With `COc1cccc2c1C(=O)c1c(O)c3c(c(O)c1C2=O)C[C@@](O)(C(=O)CO)C[C@@H]3O[C@H]1C[C@H](N)[C@H](O)[C@H](C)O1` [doxorubicin] as the molecule, how does the “apoptotic sensitivity (delta priming)” value read?
Answer: increase apoptotic sensitivity

Question: `C=CCNC1=C2C[C@@H](C)C[C@H](OC)[C@H](O)[C@@H](C)/C=C(\C)[C@H](OC(N)=O)[C@@H](OC)/C=C\C=C(/C)C(=O)NC(=CC1=O)C2=O` [tanespimycin] was tested. Which “apoptotic sensitivity (delta priming)” value did it give?
Answer: increase apoptotic sensitivity
